Assay results taken from US20180344725A1, “QUINOLONE CHALCONE COMPOUNDS AND USES THEREOF” (priority 2015, published 2018).

How the values were obtained:
[1] = molecular target: T1, tubulin (colchicine-binding site) (Sus scrofa, UniProt P02550+P02554); test: Colchicine competition assay; set-up: species or system porcine; settings: colchicine 1.0-8.0 μM
T1 construct: purchased Cytoskeleton Inc. (Denver, Colo.) T240

[2] = molecular target: T2, tubulin (Sus scrofa, UniProt P02550+P02554); test: Dissociation constant of CTR-tubulin binding (tryptophan fluorescence); set-up: species or system porcine; settings: purified tubulin 0.4 μM, 30 minutes at 37° C.
T2 construct: purchased Cytoskeleton Inc. (Denver, Colo.) T240
Method: Purified tubulin (0.4 μM) was dissolved in 25 mM PIPES buffer (pH 6.8) and incubated in the presence or absence of different concentrations of CTR-17 (or CTR-20) for 30 minutes at 37° C. The intrinsic fluorescence of the tryptophan residues in the tubulin heterodimers was monitored by excitation of the reaction mixture at 295 nm and the emission spectra at the 315-370 nm wavelength range. All measurements were corrected for the inner filter using the formula Fcorrected=Fobserved×antilog [(Aex+Aem)/2], where Aex and Aem are the absorbance of the reaction mixture at the excitation and emission wavelengths, respectively. Graph Pad Prism software was used to determine the dissociation constant of the CTR compounds binding to tubulin using the following formula
wherein ΔF is the changes in fluorescence intensity of tubulin when bound with the CTR compounds, ΔFmax is the maximum change in the fluorescence intensity when tubulin is bound with the compounds, C is the concentration of the CTR compounds, and Kd is the dissociation constant of the CTR compounds bound to tubulin.

[3] = tested on: tubulin (vinblastine binding site); test: BODIPY FL vinblastine competition assay; set-up: species or system porcine; settings: 25 μM; 5 μM BODIPY FL-vinblastine
Description: For the vinblastine competition assay, fluorescence was monitored by excitation of the reaction mixture at 490 nm and the emission spectra at the 510-550 nm range.

[4] = tested on: KB-C-1; test: SRB-based cytotoxicity assay; format: cell-based; settings: Homo sapiens, KBC-1; KB-C-1, multidrug naïve
Method: 1845B5 and MCF-10A non-cancer breast cell lines were cultured in DME/F12 medium supplemented with 10% fetal bovine serum, antibiotics and growth factors. […] The human small cell lung carcinoma H69 cell line and its multidrug-resistant MRP1-overexpressing isogenic H69AR cell line were purchased from ATCC. […] H69 cells grow as large multi-cell aggregates, making it difficult to accurately count cell numbers. […] The IL-6 dependent bortezomib-resistant ANBL6-BR cell line was further supplemented with 1 ng/ml of IL-6. The MCF10AT1 and MCF10CA1a cell lines are isogenic to the MCF10A cell line, and obtained from Dr. Valerie Weaver at the Center for Bioengineering and Tissue Regeneration, UCSF, CA, USA. […] The drug-resistant cells were cultured in the absence of drug for at least one passage before carrying out experiments. All cells were maintained in a humidified incubator at 37° C. […] Cell line authentication was performed using short tandem repeat (STR) profiling. […] Some wells were treated with 100 μl of 10% trichloroacetic acid (TCA) as a negative control and sham (medium with dimethyl sulfoxide; DMSO) treated cells were used as a positive control. […] TCA was removed and cells were washed with cold tap water, and plate was air-dried, followed by addition of 50 μl of 0.4% SRB staining solution to each well. After 30 minutes incubation, SRB staining solution was removed. Cells were washed with 1% acetic acid solution, and then washed with tap water to remove unbound staining solution, followed by air-drying. 200 μl of 10 mM (pH10.5) trizma base buffer was added to each well to solubilise macromolecules. […] Cell growth (inhibition) was calculated by the following formula: % cells proliferation=[(AT-CT)/(ST-CT)]×100 wherein AT=absorbance of treated cells, CT=absorbance of negative control cells, and ST=absorbance of sham treated cells. […] CI values were determined from four independent experiments.

[5] = tested on: HeLa cells; test: Cell cycle analysis by flow cytometry; format: cell-based; settings: 6-72 hours
Method: Approximately 1×10^6 cells per plate were seeded and grown overnight. Cells were then treated the next morning with test compounds, and harvested at the scheduled post-treatment times. The cell pellet was collected by centrifugation at 1,100 rpm (Allegra™ X-12 centrifuge, Beckman Coulter, Indianapolis, Ind.), followed by washing the cells twice with PBS, and fixing them with 75% ethanol for 12-24 hours at −20° C. Ethanol was removed by centrifugation at […] (Allegra™ X-12 centrifuge, Beckman Coulter); cells were suspended in PBS and centrifuged again at […] in the same rotor. The PBS was then removed and the cell pellet was resuspended and stained for 1 hour with propidium iodide (PI) staining solution (0.3% nonidet P-40, 100 μg/ml RNase A and 100 μg/ml PI in PBS). The DNA content in the different phases of the cell cycle was analysed by flow cytometry using Beckmann Coulter Cytomics FC500 (Mississauga, ON, Canada). The reversibility of drug effects was determined as follow: HeLa cells treated with a CTR compound for 12 hours were washed twice with 1×PBS, and then released them into pre-warmed drug-free complete medium for scheduled durations. The cells were then examined by confocal microscopy for their morphology or subjected to cell cycle analysis by flow cytometry after cells (DNA) were stained with propidium iodide.

[6] = tested on: HeLa cells; test: Western blotting (PARP cleavage, apoptosis); format: cell-based; settings: by 24-hour post-treatment
Method: Exponentially growing cells were collected by centrifugation at 1,100 rpm (Allegra™ X-12 centrifuge, Beckman Coulter) at scheduled time points post-treatment. Cells were washed three times with PBS by centrifugation under the same conditions, followed by cell lysis for 10-15 minutes on ice in 100 μl Lysis buffer (150 mM NaCl, 5 mM EDTA, 1% triton X-100, 10 mM tris pH 7.4, 1 mM PMSF, 5 mM EDTA and 5 mM protease inhibitor). Cell extracts were centrifuged at 11,000 rpm (Allegra™ X-12 centrifuge, Beckman Coulter) for 10 minutes at 4° C. Supernatant was collected and the protein concentration was measured using a BCA assay kit according to the supplier's specifications (Thermo Fisher Scientific, Waltham, Mass.). Cell lysates were then diluted with 2× Iaemmli sample buffer and boiled for 5 minutes at 95-100° C. 30-40 μg protein was loaded on 8% or 10% polyacrylamide gel and resolved by electrophoresis. Proteins were then electronically transferred to a PVDF membrane for 75 minutes at 24 volts, followed by “blocking” with 5% skim milk for 1 hour. Proteins were incubated with primary antibody overnight at 4° C. in 0.1% TBST buffer containing 5% skim milk. The membrane was washed three times with 0.1% TBST buffer and incubated for 1 hour with secondary antibody in TBST buffer containing 5% skim milk. […]

Row | Compound | effect on binding of colchicine to tubulin [1] | Kd [2] [µM] | binding to the vinblastine binding site on the tubulin [3] | IC50 [4] [µM] | concentrations that caused mitotic arrest and, eventually, cell death [5] [nM] | concentration at which many cells underwent apoptosis (cleavage of PARP) [6] [nM]
1 | COc1ccc2[nH]c(=O)c(/C=C/C(=O)c3ccccc3OC)cc2c1 [CTR-20, (E)-6-Methoxy-3-(3-(2-methoxyphenyl)-3-oxoprop-1-enyl) quinolin-2(1H)-one] | inhibited the binding of colchicine to tubulin | 5.09 ± 0.49 | did not bind to the vinblastine binding site | 0.1 ± 0.02 | – | –
2 | COc1ccccc1C(=O)/C=C/c1cc2ccccc2[nH]c1=O [CTR-17, (E)-3-(3-(2-Methoxyphenyl)-3-oxoprop-1-enyl)quinolin-2(1H)-one] | inhibited the binding of colchicine to tubulin | 4.58 ± 0.95 | did not bind to the vinblastine binding site | 0.38 ± 0.07 | – | –
3 | CCOc1ccccc1C(=O)/C=C/c1cc2ccccc2[nH]c1=O [CTR-32, (E)-3-(3-(2-ethoxyphenyl)-3-oxoprop-1-enyl)quinolin-2(1H)-one] | – | – | – | – | > 50 | ≥ 30
4 | COc1ccccc1C(=O)/C=C/c1cc2cccc(OC)c2[nH]c1=O [CTR-21, (E)-8-methoxy-3-(3-(2-methoxyphenyl)-3-oxoprop-1-enyl) quinolin-2(1H)-one] | – | – | – | – | > 60 | ≥ 15
